Data on four molecules can be found in patent publication US8188271B2, “Polycyclic carbamoylpyridone derivative having HIV integrase inhibitory activity” (Shionogi & Co., Ltd., priority 2005, dated 2012).

In this test the target is HIV integrase (Human immunodeficiency virus type 1 group M subtype B, UniProt P04585). As to the kind of experiment: HIV integrase inhibitory activity assay (strand transfer, immunoplate, OD405). The test is classed as biochemical. The note with it: HIV integrase inhibition rate, absorbance OD405 nm. On the procedure: The HIV integrase inhibitory activity was investigated based on the following assay method.
(1) Preparation of DNA Solution
By the same method as that described in Experimental Example 1 of WO 2004/024693, a substrate DNA solution (2 μmol/μl) and a target DNA solution (5 μmol/μl) were prepared. […] Each sequence of a substrate DNA and a target DNA is as described in the same Experimental Example.
(2) Measurement of Inhibition Rate (IC50 Value)
Streptavidin (manufactured by Vector Laboratories) was dissolved in a 0.1 M carbonate buffer solution (composition: 90 mM Na2CO3, 10 mM NaHCO3) to a concentration of 40 μg/ml. Each 50 μl of this solution was added to a well of an immunoplate (manufactured by NUNC), and this is allowed to stand at 4° C. overnight to adsorb. Then, each well was washed with a phosphate buffer (composition: 13.7 mM NaCl, 0.27 mM KCl, 0.43 mM Na2HPO4, 0.14 mM KH2PO4) two times, and 300 μl of a phosphate buffer containing 1% skim milk was added to block it for 30 minutes. Further, each well was washed with a phosphate buffer two times, […] of a substrate DNA solution (2 μmol/μl) was added to adsorb at room temperature for 30 minutes while shaking, and this was washed with a phosphate buffer two times and, then, distilled water once.
Then, to each well prepared as described above were added 12 μl of a buffer (composition: 150 mM MOPS (pH7.2), 75 mM MnCl2, 50 mM 2-mercaptoethanol, 25% glycerol, 500 μg/ml bovine serum albumin-fraction V), and 51 μl of a reaction solution prepared from […] of distilled water. Then, 9 μl of an integrase solution (30 μmol) was added, and the mixture was mixed well. To a well as a negative control (NC) was added 9 μl of a diluting solution (composition: 20 mM MOPS (pH7.2), 400 mM potassium glutamete, 1 mM EDTA, 0.1% NP-40, 20% glycerol, 1 mM DTT, 4 M urea), and this was mixed well using a plate mixer.
After the plate was incubated at 30° C. for 60 minutes, the reaction solution was discarded, followed by washing with 250 μl of a washing buffer (composition: 150 mM MOPS (pH7.2), 50 mM 2-mercaptoethanol, 25% glycerol, 500 μg/ml bovine serum albumin-fraction V) three times.
Then, to each well were added 12 μl of a buffer (composition: 150 mM MOPS (pH7.2), 75 mM MgCl2, 50 mM 2-mercaptoethanol, 25% glycerol, 500 μg/ml bovine serum albumin-fraction V), and 53 μl of a reaction solution prepared from 41 μl of distilled water. Further, 6 μl of a solution of a test compound in DMSO was added to each well, and 6 μl of DMSO was added to a well as a positive control (PC), followed by mixing well using a plate mixer. […]
C abs.; absorbance of well of compound
NC abs.: absorbance of NC
PC abs.: absorbance of PC
Usually IC50 stands for the concentration that gives 50% inhibition. Low readings indicate higher potency, high ones lower potency. For `CN1CN(C[C@@H]2CCCO2)C(=O)c2c(O)c(=O)c(C(=O)NCc3ccc(F)cc3F)cn21` [Example N-15, 5-Hydroxy-1-methyl-4,6-dioxo-3-[(S)-1-(tetrahydro-furan-2-yl)methyl]-2,3,4,6-tetrahydro-1H-pyrid[2,1-f][1,2,4]triazine-7-carboxylic acid 2,4-difluoro-benzylamide], 3.3 nM corresponded to half-maximal inhibition (IC50). For `CN1CN(C[C@H]2CCCO2)C(=O)c2c(O)c(=O)c(C(=O)NCc3ccc(F)cc3F)cn21` [Example N-16, 5-Hydroxy-1-methyl-4,6-dioxo-3-[(R)-1-(tetrahydro-furan-2-yl)methyl]-2,3,4,6-tetrahydro-1H-pyrid[2,1-f][1,2,4]triazine-7-carboxylic acid 2,4-difluoro-benzylamide], it took 2.6 nM to reach half-maximal inhibition (IC50). On to `O=C(NCc1ccc(F)cc1F)c1cn2c(c(O)c1=O)C(=O)N(C[C@@H]1CCCO1)CN2` [Example O-06, 5-Hydroxy-4,6-dioxo-3-[(S)-1-(tetrahydro-furan-2-yl)methyl]-2,3,4,6-tetrahydro-1H-pyrid[2,1-f][1,2,4]triazine-7-carboxylic acid 2,4-difluoro-benzylamide], for which the IC50 amounted to 3.8 nM. The figure for `O=C(NCc1ccc(F)cc1F)c1cn2c(c(O)c1=O)C(=O)N(CCN1CCOCC1)CN2` [Example O-07, 5-Hydroxy-3-(2-morpholin-4-yl-ethyl)-4,6-dioxo-2,3,4,6-tetrahydro-1H-pyrid[2,1-f][1,2,4]triazine-7-carboxylic acid 2,4-difluoro-benzylamide] is 4.8 nM.
